Data set [1] deals with T1, HDAC2 Human recombinant C-terminal FLAG-tag (Homo sapiens, UniProt Q92769).
T1 construct: FLAG (C); purchased BPS Bioscience 50052
Description: Measurement of HDAC2 enzyme inhibitory activity (HTRF). It is filed as biochemical. Conditions: recombinant HDAC2, H3K9ac peptide, 3 hours room temperature; read-out: HDAC2 IC50. The method in brief:
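Compounds were tested at 8 points in 3-fold dilutions from 99 μM final (n=2) against FLAG-tagged HDAC2 with biotinylated H3K9ac (1-21) peptide (0.6 μM as added). The reaction ran 3 h at room temperature in Tris pH 8.0 buffer, then was stopped with SAHA. Deacetylated product was detected by HTRF (Eu-anti-H3K9me0 antibody, streptavidin-XL665) as the 665/615-620 nm ratio.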
(Time-resolved FRET reads energy transfer from a long-lived donor to a nearby acceptor.)

A short description of data set [2]: Platelet toxicity test using human blood progenitor cells (WST). Type of data set: cell-based. Conditions: human bone marrow CD34+ progenitor cells, maximum concentration 25 μM. The procedure:
Test Example 2: Platelet Toxicity Test Using Human Blood Progenitor Cells
Human bone marrow CD34+ progenitor cells (Lonza, 2M-101B) stored at −80° C. were thawed, spun down at 150 g for 10 minutes at 20° C., and a medium (StemSpan Expansion Supplement, STEM CELL TECHNOLOGIES, ST-02696) to which cytokines (StemSpan SFEM II, STEM CELL TECHNOLOGIES, ST-09655) was added was added to adjust to 2×10^4/well, the mixture was seeded in 12well non-coat dish (Corning, 3513), was incubated for 10 days at 37° C., 5% CO2. After 10 days, the cells were collected and spun down at 150 g for 10 minutes at 20° C., and a medium (StemSpan Expansion Supplement) containing cytokines (StemSpan SFEM II) was added so that the number of cells became 2×10^5 cells/ml. 50 μl of the cell suspension was seeded to each well of a 96-well plate (Corning, 3596) and allowed to stand overnight in an incubator at 37° C., 5% CO2. The next day, 50 μl of the test compound was treated to each well and allowed to stand for 48 hours in the incubator at 37° C., 5% CO2 (n=2). At this time, the test compound dissolved in 100% DMSO was serially diluted with DMSO at a 3-fold ratio, and then a medium containing cytokine was added to adjust the final concentration to 25, 8.33, 2.78, 0.93, 0.31, 0.1 μM. After that, 10 μl of WST (Cell count reagent SF, Nacalai Tesque Inc., 07553-44) was added to each well, and the mixture was allowed to stand in the incubator for 4 hours at 37° C., 5% CO2, and then the multi-label reader 2030 ARVO X4 (PerkinElmer) was used to measure the absorbance. At this time, the absorbance at 450 nm and the absorbance at 620 nm were obtained, and the difference between 450 nm and 620 nm was used as the measured value. The measured values were analyzed by Excel and TIBCO Spotfire, and IC50 values were calculated. At this time, for control (−), the well without cells was set as n=6 for one row, and the average value was calculated, and for control (+), the well in which DMSO was added to the cells so as to have the same concentration as the compound treatment group was set as n=6 for one row, and the average value was calculated and corrected for each plate. For the test compound, the average value of n=2 was used.

Data set [3] can be described thus: BA test (oral absorption). Type of data set: in vivo. As to conditions: plasma; mice or rats; oral vs intravenous administration. The procedure: Materials and methods for experiments to evaluate oral absorption (1) Experimental animals: mice or rats were used. (2) Rearing condition: mice or rats were allowed free access to solid feed and sterilized tap water. (3) Setting of dosage and grouping: Oral administration and intravenous administration were performed with the predetermined dosage. Grouping was set as below. (Dosage was changed per compound)
Oral administration 2 to 60 μmol/kg or 1 to 30 mg/kg (n=2 to 3)
Intravenous administration 1 to 30 μmol/kg or 0.5 to 10 mg/kg (n=2 to 3)
(4) Preparation of administration solutions: Oral administration was performed as suspension or solution. Intravenous administration was performed after solubilization. (5) Routes of administration: Oral administration was performed mandatory into the stomach by oral sonde. Intravenous administration was performed from caudal vein by syringes with needle. (6) Evaluation items: Blood was collected serially and concentration of a compound of the present invention in plasma was measured by LC/MS/MS. (7) Statistical analysis: About transition of concentration of a compound of the present invention in plasma, the area under the plasma concentration versus time curve (AUC) was calculated by non-linear least-squares method program, and bioavailability (BA) of a compound of the present invention was calculated from dosages and AUCs of the oral administration group and the intravenous administration group. The dilution concentration or the dilution solvent were changed as necessary.

For data set [4], the target named is T2, human ether-a-go-go related gene (hERG) channel (Homo sapiens, UniProt Q12809).
T2 construct: expressed in transfected cells; host or cells: CHO cells
T2 sequence (Q12809 whole entry): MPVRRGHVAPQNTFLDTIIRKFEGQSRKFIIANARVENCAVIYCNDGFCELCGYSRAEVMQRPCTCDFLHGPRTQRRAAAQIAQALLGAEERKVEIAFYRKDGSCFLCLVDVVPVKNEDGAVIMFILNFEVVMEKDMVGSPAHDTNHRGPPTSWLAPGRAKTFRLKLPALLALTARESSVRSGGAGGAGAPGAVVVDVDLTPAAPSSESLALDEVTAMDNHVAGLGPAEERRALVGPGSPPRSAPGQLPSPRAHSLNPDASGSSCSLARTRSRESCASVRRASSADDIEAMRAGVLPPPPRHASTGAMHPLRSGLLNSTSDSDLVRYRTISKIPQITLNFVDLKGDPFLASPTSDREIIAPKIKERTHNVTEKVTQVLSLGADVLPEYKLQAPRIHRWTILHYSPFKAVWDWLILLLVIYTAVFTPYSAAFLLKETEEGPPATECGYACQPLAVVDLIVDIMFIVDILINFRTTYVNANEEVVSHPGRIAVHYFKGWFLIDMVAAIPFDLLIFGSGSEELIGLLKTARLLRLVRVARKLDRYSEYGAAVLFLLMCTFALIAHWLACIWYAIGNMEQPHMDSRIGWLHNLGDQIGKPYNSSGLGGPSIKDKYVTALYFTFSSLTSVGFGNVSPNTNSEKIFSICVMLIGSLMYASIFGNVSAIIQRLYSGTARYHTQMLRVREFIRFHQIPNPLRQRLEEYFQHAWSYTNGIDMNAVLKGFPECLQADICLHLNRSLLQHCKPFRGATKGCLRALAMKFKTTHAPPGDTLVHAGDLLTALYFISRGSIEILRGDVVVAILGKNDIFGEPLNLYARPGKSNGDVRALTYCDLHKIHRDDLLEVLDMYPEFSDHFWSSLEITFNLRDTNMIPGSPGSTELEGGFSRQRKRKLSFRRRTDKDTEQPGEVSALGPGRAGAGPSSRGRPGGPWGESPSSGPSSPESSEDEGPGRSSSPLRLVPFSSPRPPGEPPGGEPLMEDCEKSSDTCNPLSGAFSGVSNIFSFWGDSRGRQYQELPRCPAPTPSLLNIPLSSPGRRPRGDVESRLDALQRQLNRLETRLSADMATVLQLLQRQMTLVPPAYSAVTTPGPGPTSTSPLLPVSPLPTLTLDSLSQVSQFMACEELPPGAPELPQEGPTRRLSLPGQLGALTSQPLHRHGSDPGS
In words: hERG test (whole cell patch clamp). Type of data set: cell-based. As to conditions: CHO cells expressing hERG; concentration not given. The source says:
For the purpose of assessing risk of an electrocardiogram QT interval prolongation of the compound of the present invention, effects of the compound of the present invention on delayed rectifier K^+ current (IKr), which plays an important role in the ventricular repolarization process, was studied using CHO cells expressing human ether-a-go-go related gene (hERG) channel.
After a cell was retained at a membrane potential of −80 mV by whole cell patch clamp method using an automated patch clamp system (QPatch; Sophion Bioscience A/S) and gave a leak potential of −50 mV, IKr induced by depolarization pulse stimulation at +20 mV for 2 seconds, and further, repolarization pulse stimulation at −50 mV for 2 seconds, was recorded. A vehicle, which was the 0.1% dimethyle sulfoxide solution in extracellular solution (NaCl: 145 mmol/L, KCl: 4 mmol/L, CaCl2: 2 mmol/L, MgCl2: 1 mmol/L, glucose:10 mmol/L, HEPES (4-(2-hydroxyethyl)-1-piperazineethanesulfonic acid): 10 mmol/L, pH7.4), or the compound of the present invention had been dissolved at an objective concentration in the extracellular solution was applied to the cell at room temperature for 7 minutes or more. From the recording IKr, an absolute value of the tail peak current was measured based on the current value at the resting membrane potential using analysis software (QPatch assay software; Sophion Bioscience A/S). Further, the % inhibition of tail peak current for the compound of the present invention relative to the tail peak current after application of the vehicle was calculated to assess influence of the compound of the present invention on IKr. The dilution concentration and dilution solvent were changed as necessary.
In general terms: Block of hERG is tested as a sign of cardiac risk.

Data set [5] is described as follows: Metabolism stability test. Type of data set: in vitro ADME. Conditions: human liver microsomes 0.5 mg protein/mL, 30 minutes, 37° C., NADPH. As to the method: Using commercially available pooled human hepatic microsomes, a compound of the present invention is reacted for a constant time, and a remaining rate is calculated by comparing a reacted sample and an unreacted sample, thereby, a degree of metabolism in liver is assessed.
A reaction is performed (oxidative reaction) at 37° C. for 0 minute or 30 minutes in the presence of 1 mmol/L NADPH in 0.2 mL of a buffer (50 mmol/L Tris-HCl pH 7.4, 150 mmol/L potassium chloride, 10 mmol/L magnesium chloride) containing 0.5 mg protein/mL of human liver microsomes. After the reaction, 50 μL of the reaction solution is added to 100 μL of a methanol/acetonitrile=1/1 (v/v), mixed and centrifuged at 3000 rpm for 15 minutes. The compound of the present invention in the supernatant is quantified by LC/MS/MS or Solid Phase Extraction (SPE)/MS, and a remaining amount of the compound of the present invention after the reaction is calculated, letting a compound amount at 0 minute reaction time be 100%. The hydrolysis reaction is carried out in the absence of NADPH, and the glucuronidation reaction is carried out in the presence of 5 mmol/L UDP-glucuronic acid instead of NADPH, and the same operation is carried out thereafter. The dilution concentration and dilution solvent are changed as necessary.

Data set [6] concerns HDACs other than HDAC2 (HDAC2 knockout K562 cells). In words: Evaluation of HDAC2 selectivity: H3K9 histone acetylation in HDAC2 knockout K562 cells (AlphaLISA).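 Further: 0% inhibition equals DMSO-treated group.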 Conditions: Homo sapiens, maximum concentration 83.3 μM, 100% = SAHA-treated group, read-out: maximum inhibition rate (H3K9 histone acetylation). Type of data set: cell-based. The procedure: Test Example 3: Evaluation of HDAC2 Selectivity
K562 cells were cultured in RPMI1640 medium (SIGMA, R8758) containing 10% FBS (Hyclone, SH30070.03) and 1% penicillin streptomycin (Nacalai Tesque, 26252-94). CompoZr (registered trademark) Zinc Finger Nuclease (Merck) targeting HDAC2 sequences was transfected into K562 cells by electroporation using Nucleofector (Lonza). The cells after transfection were subjected to limiting dilution, and DNA sequencing was performed on the cell clones in which mutations were detected by the PCR method. Cell clones lacking a base number that was not a multiple of 3 in both alleles were identified, and a single-cell cloning was performed on the cell clones to produce HDAC2 knockout K562 cells. It was confirmed that the expression of HDAC2 was not detected by Western blotting in the prepared cells.
By evaluating the H3K9 histone acetylation-enhancing activity of the test compound using HDAC2 knockout K562 cells, the inhibitory activity against HDACs other than HDAC2 was evaluated.
HDAC2 knockout K562 cells stored in liquid nitrogen were thawed and cultured in RPMI1640 medium (Nacalai Tesque, 30264-85) for 2 to 4 days. Using Echo555 (Beckman Coulter), the test compound was dispensed to the assay plate (Corning, 4513) at 37.5 nL/well, and then HDAC2 knockout K562 cells were seeded to 125 cells/4.5 μL/well, and stirred. At this time, the test compound was treated at 8 points (n=2) in the 3-fold dilution series from the maximum concentration of 83.3 μM. After culturing at 37° C. and 5% CO2 overnight, 1.5 μL/well of Lysis buffer (PerkinElmer, AL009F1) was added, and after incubating at room temperature for 15 minutes, 3 μL/well of Extraction buffer (PerkinElmer, AL009F2) was added and the mixture was incubated for 10 minutes at room temperature. Then, 5× antibody solution (prepared by diluting anti-H3K9 Acceptor beads (PerkinElmer, AL114M) 75-fold with a detection buffer prepared by diluting 10×Cell-Histone Detection buffer (PerkinElmer, AL009F3) 10-fold with ultrapure water, and diluting Biotinylated anti H3 antibody (PerkinElmer, AL118M) diluted 150 times with the detection buffer) was added at 3 μL/well, and after incubating at room temperature for 60 minutes, then 5× donor beads solution (prepared by diluting Streptavidin Donor beads (PerkinElmer, 6760002) 75 fold with the detection buffer) was added at 3 μL/well, and the mixture was incubated again at room temperature for 60 minutes, and then the emission value was measured using PHERAstar (BMG LABTECH) (excitation=680 nm, […]). […] For cell toxicity, cell viability rate was evaluated by the PrestoBlue method.
For orientation: Bead proximity is the source of the signal in Alpha formats.

Consider 14 compounds from patent US20230119479A1, “A HISTONE DEACETYLASE INHIBITOR HAVING A NITROGEN-CONTAINING AROMATIC HETEROCYCLYL GROUP” (SHIONOGI & CO., LTD., priority 2019, published 2023).

In general, IC50 refers to the concentration that gives 50% inhibition. As usually defined, the bioavailability is dose-corrected exposure relative to a reference, in per cent. What is called inhibition is the relative decrease from the control value, in per cent.

T1 sequence (Q92769 whole entry): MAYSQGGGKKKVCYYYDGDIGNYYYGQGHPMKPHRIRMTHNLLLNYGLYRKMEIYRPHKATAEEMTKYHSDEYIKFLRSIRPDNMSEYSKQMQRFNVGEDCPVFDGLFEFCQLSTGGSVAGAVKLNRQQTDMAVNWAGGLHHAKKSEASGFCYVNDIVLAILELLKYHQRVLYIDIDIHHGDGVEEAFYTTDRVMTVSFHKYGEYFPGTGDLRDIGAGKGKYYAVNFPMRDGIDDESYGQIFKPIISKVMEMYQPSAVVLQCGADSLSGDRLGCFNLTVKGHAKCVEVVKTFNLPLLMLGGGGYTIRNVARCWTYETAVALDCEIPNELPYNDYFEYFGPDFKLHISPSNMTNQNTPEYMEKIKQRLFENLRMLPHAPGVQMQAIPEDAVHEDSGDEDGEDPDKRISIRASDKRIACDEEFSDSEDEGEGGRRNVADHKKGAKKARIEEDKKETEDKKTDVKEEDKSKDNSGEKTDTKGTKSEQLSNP

Take `Cn1cc(-c2ccc(C(=O)Nc3cc(-c4cccs4)ccc3N)nc2)cn1` [Compound I-003]: the IC50 in data set [1] was determined as 310 nM. In addition, the IC50 at 48 h in data set [2] was above 25 µM. The compound further displayed a bioavailability in data set [3] of 33.8%. Also, the “% inhibition of tail peak current (IKr)” value in data set [4] worked out at 17.1%.
For the compound `CN(C)c1ccc(C(=O)Nc2cc(-c3cnn(C)c3)ccc2N)nc1` [Compound I-177], the IC50 in data set [1] stood at 170 nM. Moreover, in data set [5], the “remaining rate after reaction” value was determined as 92%.
On to `CN(C)c1cnc(C(=O)Nc2cc(-c3cnn(C)c3)ccc2N)cn1` [Compound I-179], for which, in data set [1], the IC50 is 81 nM. For the same compound, the inhibition at up to 83.3 µM in data set [6] is 9%. For the same compound, the “remaining rate after reaction” value in data set [5] is given as 93.5%.
Turning to `Nc1ccc(-c2ccc(F)nc2)cc1NC(=O)c1ccc(C(F)F)cn1` [Compound I-144], the IC50 in data set [1] worked out at 230 nM. Besides, in data set [2], the IC50 at 48 h is above 25 µM. The inhibition at up to 83.3 µM in data set [6] was 7%.
With `Nc1ccc(-n2cccc2)nc1NC(=O)c1cnc(N2CCOCC2)cn1` [Compound I-030], the IC50 in data set [1] worked out at 190 nM. In data set [6], the inhibition at up to 83.3 µM is 9%. For the same compound, the “remaining rate after reaction” value in data set [5] is given as 101%.
As to `Cn1cc(-c2ccc(C(=O)Nc3nc(-c4cccs4)ccc3N)nn2)cn1` [Compound I-028], the IC50 in data set [1] stood at 230 nM. In data set [2], this compound showed an IC50 at 48 h above 25 µM. Besides, the inhibition at up to 83.3 µM in data set [6] is 8%.
On to `CCOCCOc1cnc(C(=O)Nc2cc(-c3ccc(F)nc3)ccc2N)cn1` [Compound I-126], for which the IC50 in data set [1] amounted to 140 nM. In data set [2], this compound gave an IC50 at 48 h above 25 µM. Also, in data set [6], the inhibition at up to 83.3 µM is 5%.
On to `Cn1cc(-c2ccc(N)c(NC(=O)c3cnc(OCC(F)F)cn3)c2)cn1` [Compound I-152], for which the IC50 in data set [1] is 250 nM. Further, the “remaining rate after reaction” value in data set [5] was 97.9%.
`Nc1ccc(-c2ccc(F)nc2)cc1NC(=O)c1ccc(OCF)cn1` [Compound I-142]: in data set [1], the IC50 came to 180 nM. Besides, in data set [2], the IC50 at 48 h was above 25 µM. Besides, the inhibition at up to 83.3 µM in data set [6] came out at 8%.
For `COCCOc1ccc(C(=O)Nc2cc(-c3ccc(F)nc3)ccc2N)nc1` [Compound I-127] the same measures were 110 nM, above 25 µM and 7%.
The like results for `Cn1cc(-c2ccc(N)c(NC(=O)c3cc4ccccc4cn3)c2)cn1` [Compound I-141] were, in that order, 230 nM, above 25 µM and 6%.
In the case of `Nc1ccc(-c2ccc(F)nc2)cc1NC(=O)c1ccc2ocnc2n1` [Compound I-148], the IC50 in data set [1] worked out at 150 nM. Besides, in data set [5], the “remaining rate after reaction” value was 94.9%.
For `Cc1cnc(C(=O)Nc2nc(-c3ccccc3)ccc2N)cn1` [Compound I-169], the IC50 in data set [1] was 360 nM. For the same compound, the “remaining rate after reaction” value in data set [5] is listed as 91.4%.
On to `Nc1ccc(-n2cccc2)nc1NC(=O)c1cnc(C2CC2)cn1` [Compound I-161], for which the IC50 in data set [1] was found to be 350 nM. The IC50 at 48 h in data set [2] was above 25 µM. Moreover, in data set [6], the inhibition at up to 83.3 µM was 9%.
